Data published in EP2272817A1, “PAI-1 INHIBITOR” (Institute of Medicinal Molecular Design, Inc., priority 2008, dated 2009).

Assays:
recombinant human PAI-1 [1] = biological target: T1, recombinant human PAI-1 (Homo sapiens, UniProt P05121); assay: biochemical; conditions: for inhibition at 5 µM: read-out: Inhibition Rate of PAI-1 Activity (%), Compound Concentration 5µM; for inhibition at 10 µM: read-out: Inhibition Rate of PAI-1 Activity (%), Compound Concentration 10µM; for inhibition at 25 µM: read-out: Inhibition Rate of PAI-1 Activity (%), Compound Concentration 25µM
recombinant human PAI-1 [2] = biological target: T1, recombinant human PAI-1; assay: Test Example 2: Human PAI-1 Inhibitory Activity (pH 7.4 HEPES buffer, 10 minutes incubation with two-chain tPA); format: biochemical; design: purchased Molecular Innovations, Inc; conditions: read-out: Inhibition Rate of PAI-1 Activity (%)
Method: 0.1 M HEPES, 0.1 M NaCl. 1 mM EDTA. 0.1 % Polyethylene glycol 8,000 (Hampton Research Corporation),
2 mM Dimethyldecylphoshine oxide [Apo-10] (Fluka Corporation)

recombinant human PAI-1 [3] = biological target: T1, recombinant human PAI-1; assay: Test Example 4: Human PAI-1 Inhibitory Activity (amount of PAI-1 bound to plate-coated one-chain tPA, ELISA); format: biochemical; design: purchased Molecular Innovations, Inc; conditions: human PAI-1 bound to tPA, read-out: Inhibition Rate of PAI-1 Activity (%); for inhibition at 0.3 µM: Compound Concentration 0.3µM; for inhibition at 1 µM: Compound Concentration 1µM; for inhibition at 3 µM: Compound Concentration 3µM
Method: 100 µl of tPA solution, where one-chain recombinant tPA (hereinafter reffered to as tPA; American diagnostica, inc.) had been diluted with Buffer A to acheive a concentration of 10 µg/ml, was added to each well of a 96-well plate (Nunc Maxisorp), and the plate was incubated for one night at 4 °C to be coated with tPA. Then, after suction of tPA solution from the 96-well plate, the plate was rinsed successively with Buffer A and Buffer B. To Buffer B, solutions of the compound according to the present invention dissolved with DMSO (final DMSO concentration: 0.2 %) and recombinant human PAI-1 (Molecular Innovations, Inc.) were added. The mixtures were blended so that the final concentrations would be 0.1 to 3.0 µM and 50 ng/ml respectively, and were incubated for 15 minutes on ice. These mixed solutions were added to the rinsed 96-well plate at 100 µl/well, and incubated for 60 minutes at room temperature. To prepare a calibration curve, PAI-1 solutions without the compound according to the present invention (solutions where the final concentrations being 100, 50, 25, 12.5, 6.25, 3.13, or 1.56 ng/ml PAI-1) were added at 100 µl/well, and the plate was incubated for 60 minutes at room temperature, as standard.
After incubation, the reaction mixture was removed by suction, and each well was rinsed with Wash Buffer. Next, anti-human PAI-1 monoclonal antibody (PROGEN Inc.) diluted with Buffer C to be 3.0 µg/ml was added to the 96-well plate at 100 µl/well, and the plate was incubated for 1 hour at room temperature. After rinsing each well with Wash Buffer, alkaline phosphatase-labeled goat anti-mouse IgG (H+L) (Jackson ImmunoResearch, Inc.) diluted with Buffer D to be 0.12 µg/ml was added at 100 µl/well, and the plate was incubated for 1 hour at room temperature. After rinsing each well with Wash Buffer, 1.0 mg/ml p-Nitrophenyl Phosphate (SIGMA) was added to the 96-well plate at 100 µl/well to start the reaction. After 30 to 60 minutes, 25 µl of 0.5 N NaOH was added to stop the reaction, and the absorbance was measured at 405 nm using a multiplate reader (GENios; TECAN G.M.B.H.).
Based on the calibration curve prepared from the standard wells, amounts of PAI-1 bound to tPA in the wells that had been treated with the compound according to the present invention were calculated, and the PAI-1 inhibition rates by the compounds according to the present invention were obtained by the following equation. [API-1InhibitionRate(%)] = [1-(amountofPAI-1boundtotPaonthewellbytreatmentwiththecompondaccordingtothepresentinvention)/(amountofPAI-1boundtotPAonthewellbytreatmentwithPAI-1solutionnotincledingthecompondaccordingtotheinvention(solution having the final concentration of 50 nb/ml PAI-1)] × 100 [formula] • <Composition of Buffer A> 0.1 M Tris-HCl, 150 mM NaCl, pH 7.7 • <Composition of Buffer B> 50 mM sodium phosphate, 0.1 M NaCl, 1 mM EDTA, pH 6.6 • <Composition of Buffer C> 50 mM sodium phosphate, 100 mM NaCl, pH 7.4 • <Composition of Buffer D> 0.01 M Tris-HCl, 0.25 M NaCl, pH 8.0 • <Compositon of Wash Buffer> 0.05 % Tween 20, 0.1 % BSA in Buffer A • <Composition of p-Nitrophenyl Phosphate solution> 1 M Diethanolamine 0.5 mM MgCl2, p-Nitrophenyl phosphate, pH 9.8

recombinant rat PAI-1 = biological target: T2, recombinant rat PAI-1 (Rattus norvegicus, UniProt P20961); assay: biochemical; conditions: read-out: Inhibition Rate of PAI-1 Activity (%)
T2 sequence (P20961 24-402): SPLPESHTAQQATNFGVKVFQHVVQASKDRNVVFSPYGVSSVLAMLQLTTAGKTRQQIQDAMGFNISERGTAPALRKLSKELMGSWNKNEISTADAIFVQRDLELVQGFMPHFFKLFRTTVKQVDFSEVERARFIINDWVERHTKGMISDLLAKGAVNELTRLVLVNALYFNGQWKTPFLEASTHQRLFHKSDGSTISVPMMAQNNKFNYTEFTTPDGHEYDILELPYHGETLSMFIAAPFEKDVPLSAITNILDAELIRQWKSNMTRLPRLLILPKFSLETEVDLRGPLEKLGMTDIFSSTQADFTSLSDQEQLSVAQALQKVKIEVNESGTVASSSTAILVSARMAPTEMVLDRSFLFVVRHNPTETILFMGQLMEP

T1 sequence (P05121 24-402): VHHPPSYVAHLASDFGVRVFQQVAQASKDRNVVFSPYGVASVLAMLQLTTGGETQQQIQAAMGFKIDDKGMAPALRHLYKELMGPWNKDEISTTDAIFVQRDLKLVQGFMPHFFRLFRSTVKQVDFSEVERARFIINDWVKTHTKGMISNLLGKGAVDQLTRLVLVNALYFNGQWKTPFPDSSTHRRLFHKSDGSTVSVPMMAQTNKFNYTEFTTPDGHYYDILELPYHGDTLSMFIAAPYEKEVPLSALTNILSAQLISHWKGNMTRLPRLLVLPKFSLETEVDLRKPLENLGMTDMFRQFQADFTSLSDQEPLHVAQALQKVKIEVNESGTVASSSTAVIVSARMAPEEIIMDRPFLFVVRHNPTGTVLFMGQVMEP

Row | SMILES | inhibition at 5 µM (recombinant human PAI-1 [1]) | inhibition at 10 µM (recombinant human PAI-1 [1]) | inhibition at 25 µM (recombinant human PAI-1 [1]) | inhibition at 0.1 µM (recombinant human PAI-1 [2]) | inhibition at 0.3 µM (recombinant human PAI-1 [2]) | inhibition at 1 µM (recombinant human PAI-1 [2]) | inhibition at 3 µM (recombinant human PAI-1 [2]) | inhibition at 0.3 µM (recombinant human PAI-1 [3]) | inhibition at 1 µM (recombinant human PAI-1 [3]) | inhibition at 3 µM (recombinant human PAI-1 [3]) | inhibition at 0.3 µM (recombinant rat PAI-1) | inhibition at 1 µM (recombinant rat PAI-1) | inhibition at 3 µM (recombinant rat PAI-1) | inhibition at 10 µM (recombinant rat PAI-1)
1 | Cc1ccc(N(Cc2ccc(C(C)(C)C)cc2)C(=O)C(=O)O)cc1-c1ccc(OC(F)(F)F)cc1 [Compound 176] | 65% | 94% | 91% | 0% | 10% | 21% | 96% | 9% | 9% | 29% | 0% | 23% | 71% | > 99%
2 | CCCOc1ccc(N(Cc2ccc(C(C)(C)C)cc2)C(=O)C(=O)O)cc1-c1ccc(OC(F)(F)F)cc1 [Compound 185] | 81% | 87% | 89% | 0% | 9% | 34% | > 99% | 10% | 20% | 49% | 3% | 17% | 85% | 76%
3 | CC(C)(C)c1ccc(CN(C(=O)C(=O)O)c2ccc(Cl)c(-c3ccc(OC(F)(F)F)cc3)c2)cc1 [Compound 186] | 76% | 91% |  | 0% | 9% | 22% | > 99% | 15% | 37% | 53% | 2% | 27% | 83% | 89%
4 | CCCCOc1ccc(-c2ccc(OC(F)(F)F)cc2)cc1N(Cc1ccc(C(C)(C)C)cc1)C(=O)C(=O)O [Compound 189] | 87% | 95% |  | 4% | 2% | 60% | 97% | 16% | 30% | 70% | 9% | 32% | 93% | > 99%
5 | COc1cc(OC)c(N(Cc2ccc(C(C)(C)C)cc2)C(=O)C(=O)O)cc1-c1ccc(OC(F)(F)F)cc1 [Compound 190] | 65% | 91% | 91% | 2% | 3% | 27% | 95% | 0% | 9% | 55% | 0% | 11% | 66% | > 99%
6 | CCCCCOc1ccc(-c2ccc(OC(F)(F)F)cc2)cc1N(Cc1ccc(C(C)(C)C)cc1)C(=O)C(=O)O [Compound 194] | 84% | 84% |  | 0% | 7% | 63% | 98% | 6% | 22% | 56% | 5% | 39% | 98% | > 99%
7 | CCC(CC)Oc1ccc(N(Cc2ccc(C(C)(C)C)cc2)C(=O)C(=O)O)cc1-c1ccc(OC(F)(F)F)cc1 [Compound 197] | 90% | 92% | 73% | 6% | 1% | 38% | > 99% | 21% | 34% | 73% | 0% | 37% | 84% | 75%
